Where two headings read alike, the source gives them in different places. One block for each molecule: values may come before it.
How the values were obtained:
[1] = THF
[2] = molecular target: T1, Phospho-EGFR (Tyr1068) in H1975 C797S cells (CRISPR-edited EGFR C797S) (Homo sapiens, UniProt P00533, C797S/L858R/T790M); experiment: HTRF pEGFR/total EGFR in H1975 C797S cells; type: cell-based; conditions: ratio pEGFR/total EGFR, compound 3 hours
T1 construct: host or cells: H1975 C797S (CRISPR-edited)
Method in brief: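 Adhered H1975 C797S cells got compound for 3 h in duplicate at 0.1% DMSO final, then were lysed 30 min at room temperature. HTRF kits quantified phospho-EGFR (Tyr1068) and total EGFR (665/620 nm); results are pEGFR/total EGFR ratio as percent of 0 μM control.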

[3] = molecular target: CtermHisTag-mEGFR Wild type (Homo sapiens, UniProt P00533); experiment: biochemical
[4] = molecular target: T2, Phospho-EGFR (Tyr1068) in H1975 cells (Homo sapiens, UniProt P00533, L858R/T790M); experiment: HTRF pEGFR/total EGFR in H1975 cells; type: cell-based; conditions: ratio pEGFR/total EGFR, compound 3 hours
T2 construct: host or cells: H1975
Method in brief: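 H1975 cells (EGFR L858R/T790M) treated 3 h with compound in 0.1% DMSO, in duplicate, 24 h after plating. Lysates assayed by HTRF for pEGFR (Tyr1068) and total EGFR at 665/620 nm; values are pEGFR/total EGFR ratio as percent of 0 μM control.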

[5] = molecular target: T3, Phospho-EGFR (Tyr1068) in A431 cells (Homo sapiens, UniProt P00533); experiment: HTRF pEGFR/total EGFR in A431 cells with EGF stimulation; type: cell-based; conditions: ratio pEGFR/total EGFR, compound 2.5 hours then 100 ng/ml EGF 30 mins
T3 construct: endogenous in cells; host or cells: A431
Method in brief: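 A431 cells were plated at 20,000 per well, allowed 24 h to adhere, then given compound for 2.5 h (0.1% DMSO final). They were then stimulated with 100 ng/ml EGF for 30 min and lysed. HTRF measured Tyr1068-phospho and total EGFR at 665/620 nm, with pEGFR/total EGFR expressed as % of the 0 μM control.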

T2 sequence (P00533 25-1210 T790M/L858R): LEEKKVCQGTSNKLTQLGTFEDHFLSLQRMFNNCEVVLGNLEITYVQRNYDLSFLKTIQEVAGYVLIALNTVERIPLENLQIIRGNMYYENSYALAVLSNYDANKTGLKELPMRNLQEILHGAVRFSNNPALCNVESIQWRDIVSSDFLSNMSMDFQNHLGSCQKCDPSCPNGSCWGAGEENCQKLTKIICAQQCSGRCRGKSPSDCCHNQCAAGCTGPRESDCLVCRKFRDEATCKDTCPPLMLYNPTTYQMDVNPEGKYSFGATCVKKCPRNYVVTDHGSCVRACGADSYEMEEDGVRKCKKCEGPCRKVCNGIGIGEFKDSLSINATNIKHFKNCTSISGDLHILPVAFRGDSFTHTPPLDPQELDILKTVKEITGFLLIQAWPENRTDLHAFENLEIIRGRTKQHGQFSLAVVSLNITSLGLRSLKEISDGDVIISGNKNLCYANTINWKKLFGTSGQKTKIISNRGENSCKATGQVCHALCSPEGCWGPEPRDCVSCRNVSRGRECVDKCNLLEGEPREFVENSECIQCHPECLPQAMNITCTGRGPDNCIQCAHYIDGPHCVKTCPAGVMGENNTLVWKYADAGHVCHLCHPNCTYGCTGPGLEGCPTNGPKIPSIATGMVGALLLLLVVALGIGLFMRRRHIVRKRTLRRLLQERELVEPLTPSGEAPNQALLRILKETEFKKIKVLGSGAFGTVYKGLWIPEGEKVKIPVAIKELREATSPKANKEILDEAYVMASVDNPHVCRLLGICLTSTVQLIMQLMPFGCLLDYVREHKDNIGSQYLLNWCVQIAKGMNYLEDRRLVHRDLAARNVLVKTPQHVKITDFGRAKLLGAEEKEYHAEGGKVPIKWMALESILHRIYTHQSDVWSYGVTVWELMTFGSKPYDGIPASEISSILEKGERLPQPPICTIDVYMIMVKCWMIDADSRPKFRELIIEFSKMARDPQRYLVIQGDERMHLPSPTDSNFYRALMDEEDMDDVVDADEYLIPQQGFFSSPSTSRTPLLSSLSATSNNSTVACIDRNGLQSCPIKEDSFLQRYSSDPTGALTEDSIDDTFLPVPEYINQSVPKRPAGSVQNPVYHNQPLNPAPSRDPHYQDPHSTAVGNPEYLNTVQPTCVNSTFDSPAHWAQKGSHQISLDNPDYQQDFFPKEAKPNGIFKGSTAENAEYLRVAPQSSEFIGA
CtermHisTag-mEGFR Wild type, sequence (P00533 whole entry): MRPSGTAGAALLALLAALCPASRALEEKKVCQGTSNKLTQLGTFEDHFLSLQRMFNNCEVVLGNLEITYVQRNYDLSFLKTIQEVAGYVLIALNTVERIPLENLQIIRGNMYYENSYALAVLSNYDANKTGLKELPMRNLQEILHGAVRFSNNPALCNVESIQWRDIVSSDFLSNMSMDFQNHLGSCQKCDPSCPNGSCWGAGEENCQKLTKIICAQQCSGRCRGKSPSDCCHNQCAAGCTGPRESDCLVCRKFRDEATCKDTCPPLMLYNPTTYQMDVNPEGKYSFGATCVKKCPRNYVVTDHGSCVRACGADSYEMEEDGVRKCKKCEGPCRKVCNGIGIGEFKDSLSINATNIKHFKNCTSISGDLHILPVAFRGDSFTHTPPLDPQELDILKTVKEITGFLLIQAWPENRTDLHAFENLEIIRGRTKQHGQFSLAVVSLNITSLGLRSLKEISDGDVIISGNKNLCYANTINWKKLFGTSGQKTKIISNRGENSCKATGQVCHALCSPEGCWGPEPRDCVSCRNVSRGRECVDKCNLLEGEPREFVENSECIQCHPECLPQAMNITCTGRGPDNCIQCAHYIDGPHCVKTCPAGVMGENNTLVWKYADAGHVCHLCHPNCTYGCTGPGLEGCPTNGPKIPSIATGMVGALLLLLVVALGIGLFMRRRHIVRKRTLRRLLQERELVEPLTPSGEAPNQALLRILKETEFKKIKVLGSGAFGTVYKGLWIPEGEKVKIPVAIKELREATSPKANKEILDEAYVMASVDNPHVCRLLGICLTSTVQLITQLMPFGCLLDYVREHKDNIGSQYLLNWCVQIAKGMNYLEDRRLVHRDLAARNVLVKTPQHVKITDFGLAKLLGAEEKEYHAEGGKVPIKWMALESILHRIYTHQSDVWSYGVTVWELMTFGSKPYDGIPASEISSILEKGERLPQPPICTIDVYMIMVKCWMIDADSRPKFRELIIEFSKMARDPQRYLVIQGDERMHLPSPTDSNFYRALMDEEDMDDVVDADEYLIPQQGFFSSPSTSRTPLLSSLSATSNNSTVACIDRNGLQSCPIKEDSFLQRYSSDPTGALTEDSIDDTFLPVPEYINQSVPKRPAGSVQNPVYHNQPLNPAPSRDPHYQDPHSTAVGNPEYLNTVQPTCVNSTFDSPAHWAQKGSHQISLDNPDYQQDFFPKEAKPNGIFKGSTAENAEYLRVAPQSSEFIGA
T3 sequence (P00533 25-1210): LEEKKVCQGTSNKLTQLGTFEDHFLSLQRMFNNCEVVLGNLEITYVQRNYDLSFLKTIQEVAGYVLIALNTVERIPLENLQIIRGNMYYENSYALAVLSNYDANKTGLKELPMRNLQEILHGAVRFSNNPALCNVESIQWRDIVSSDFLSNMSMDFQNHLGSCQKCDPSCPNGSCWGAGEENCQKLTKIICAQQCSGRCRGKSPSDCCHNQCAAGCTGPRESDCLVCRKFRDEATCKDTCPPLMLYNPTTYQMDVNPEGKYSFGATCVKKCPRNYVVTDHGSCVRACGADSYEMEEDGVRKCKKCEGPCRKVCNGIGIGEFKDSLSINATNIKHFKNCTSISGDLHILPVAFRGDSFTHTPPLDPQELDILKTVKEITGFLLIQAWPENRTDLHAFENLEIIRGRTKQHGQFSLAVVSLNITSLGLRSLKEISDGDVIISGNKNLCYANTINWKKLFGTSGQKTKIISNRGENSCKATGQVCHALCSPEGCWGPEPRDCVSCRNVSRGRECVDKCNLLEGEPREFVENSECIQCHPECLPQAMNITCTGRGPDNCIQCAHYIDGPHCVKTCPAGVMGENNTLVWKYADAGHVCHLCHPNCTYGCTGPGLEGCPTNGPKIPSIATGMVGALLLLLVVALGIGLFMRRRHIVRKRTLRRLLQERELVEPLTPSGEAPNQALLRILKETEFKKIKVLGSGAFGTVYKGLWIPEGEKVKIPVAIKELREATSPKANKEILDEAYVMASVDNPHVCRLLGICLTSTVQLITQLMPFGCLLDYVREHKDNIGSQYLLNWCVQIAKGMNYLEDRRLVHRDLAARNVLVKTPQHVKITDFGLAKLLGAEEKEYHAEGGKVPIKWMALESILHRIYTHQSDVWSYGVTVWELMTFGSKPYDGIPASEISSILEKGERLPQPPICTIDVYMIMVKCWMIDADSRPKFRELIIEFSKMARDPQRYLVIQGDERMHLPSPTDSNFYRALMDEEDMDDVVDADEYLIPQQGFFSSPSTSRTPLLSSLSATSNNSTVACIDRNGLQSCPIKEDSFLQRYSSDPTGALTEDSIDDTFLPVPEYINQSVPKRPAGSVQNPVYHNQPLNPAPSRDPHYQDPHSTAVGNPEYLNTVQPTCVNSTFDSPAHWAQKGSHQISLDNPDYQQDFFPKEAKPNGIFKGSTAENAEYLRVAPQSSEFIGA
T1 sequence (P00533 25-1210 T790M/C797S/L858R): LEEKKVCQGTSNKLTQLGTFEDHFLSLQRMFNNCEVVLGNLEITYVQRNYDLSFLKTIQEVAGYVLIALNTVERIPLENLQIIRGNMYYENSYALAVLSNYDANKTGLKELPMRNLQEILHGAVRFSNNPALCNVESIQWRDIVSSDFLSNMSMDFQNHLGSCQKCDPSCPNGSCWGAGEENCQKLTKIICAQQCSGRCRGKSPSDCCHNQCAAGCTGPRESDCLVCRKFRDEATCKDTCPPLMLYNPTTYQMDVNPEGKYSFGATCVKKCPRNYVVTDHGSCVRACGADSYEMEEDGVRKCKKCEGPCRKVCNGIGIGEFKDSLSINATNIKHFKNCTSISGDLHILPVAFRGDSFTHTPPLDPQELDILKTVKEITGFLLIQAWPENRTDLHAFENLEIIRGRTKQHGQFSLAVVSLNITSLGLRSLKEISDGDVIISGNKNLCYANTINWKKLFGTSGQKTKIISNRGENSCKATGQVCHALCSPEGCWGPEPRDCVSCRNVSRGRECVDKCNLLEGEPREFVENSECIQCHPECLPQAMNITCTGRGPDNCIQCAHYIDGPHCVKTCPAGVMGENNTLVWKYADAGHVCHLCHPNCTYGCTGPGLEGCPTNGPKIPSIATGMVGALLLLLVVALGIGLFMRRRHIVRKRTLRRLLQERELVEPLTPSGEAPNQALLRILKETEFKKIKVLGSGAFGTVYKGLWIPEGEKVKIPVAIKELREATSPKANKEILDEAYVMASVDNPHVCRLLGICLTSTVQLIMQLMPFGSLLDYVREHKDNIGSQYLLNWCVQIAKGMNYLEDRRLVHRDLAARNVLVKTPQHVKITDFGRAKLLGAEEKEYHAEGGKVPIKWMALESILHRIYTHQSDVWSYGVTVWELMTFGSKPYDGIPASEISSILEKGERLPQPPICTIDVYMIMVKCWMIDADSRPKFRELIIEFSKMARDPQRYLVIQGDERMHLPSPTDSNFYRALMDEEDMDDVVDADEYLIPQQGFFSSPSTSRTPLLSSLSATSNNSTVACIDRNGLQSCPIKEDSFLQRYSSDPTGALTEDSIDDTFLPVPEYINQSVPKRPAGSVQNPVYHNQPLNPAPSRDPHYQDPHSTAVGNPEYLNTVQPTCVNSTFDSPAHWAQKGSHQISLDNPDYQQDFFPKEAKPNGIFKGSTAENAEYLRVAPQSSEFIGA

Structure (SMILES): CC(C)N1CCN(c2ccc3cc2NC(=O)CCCn2c(=O)cc(C#C[Si](C(C)C)(C(C)C)C(C)C)c4cnc(nc42)N3)CC1
ring closure, isolated yield ([1]; from CC(C)N1CCN(c2ccc(Nc3ncc4c(C#C[Si](C(C)C)(C(C)C)C(C)C)cc(=O)[nH]c4n3)cc2NC(=O)CCCO)CC1, other bond, 13-membered ring, PPh3/DEAD, 72.2 mM): 44%

Structure (SMILES): CC(C)[Si](C#Cc1cc(=O)n2c3nc(ncc13)Nc1ccc(N3CCCN(C)CC3)c(c1)NC(=O)CCC2)(C(C)C)C(C)C
ring closure, isolated yield ([1]; from CC(C)[Si](C#Cc1cc(=O)[nH]c2nc(Nc3ccc(N4CCCN(C)CC4)c(NC(=O)CCCO)c3)ncc12)(C(C)C)C(C)C, other bond, 13-membered ring, PPh3/DEAD, 31.7 mM): 41%

Structure (SMILES): CC(C)[Si](C#Cc1cc(=O)n2c3nc(ncc13)Nc1ccc(N3CCN(C)CC3)c(c1)CC(=O)NCC2)(C(C)C)C(C)C
ring closure, isolated yield ([1]; from CC(C)[Si](C#Cc1cc(=O)[nH]c2nc(Nc3ccc(N4CCN(C)CC4)c(CC(=O)NCCO)c3)ncc12)(C(C)C)C(C)C, other bond, 13-membered ring, PPh3/DIAD, 24.0 mM): 43%

Structure (SMILES): CC(C)[Si](C#Cc1cc(=O)n2c3nc(ncc13)Nc1ccc(N3CCN(C)CC3)c(c1)CN(C)CCC2)(C(C)C)C(C)C
ring closure, isolated yield ([1]; from CC(C)[Si](C#Cc1cc(=O)[nH]c2nc(Nc3ccc(N4CCN(C)CC4)c(CN(C)CCCO)c3)ncc12)(C(C)C)C(C)C, other bond, 13-membered ring, PPh3/DIAD, 24.4 mM): 50%

Structure (SMILES): CC(C)[Si](C#Cc1cc(=O)n2c3nc(ncc13)Nc1ccc(N3CCN(C)CC3)c(c1)CNCCC2)(C(C)C)C(C)C
ring closure, isolated yield ([1]; from CC(C)[Si](C#Cc1cc(=O)[nH]c2nc(Nc3ccc(N4CCN(C)CC4)c(CNCCCO)c3)ncc12)(C(C)C)C(C)C, other bond, 13-membered ring, PPh3/DIAD, 20.5 mM): 53%

Structure (SMILES): CC(C)[Si](C#Cc1cc(=O)n2c3nc(ncc13)Nc1ccc(N3CCN(C)CC3)c(c1)COCCC2)(C(C)C)C(C)C
ring closure, isolated yield ([1]; from CC(C)[Si](C#Cc1cc(=O)[nH]c2nc(Nc3ccc(N4CCN(C)CC4)c(COCCCO)c3)ncc12)(C(C)C)C(C)C, other bond, 13-membered ring, PPh3/DIAD, 24.0 mM): 29%

Structure (SMILES): CC(C)[Si](C#Cc1cc(=O)n2c3nc(ncc13)Nc1ccc(N3CCN(C)CC3)c(c1)COCCCC2)(C(C)C)C(C)C
ring closure, isolated yield ([1]; from CC(C)[Si](C#Cc1cc(=O)[nH]c2nc(Nc3ccc(N4CCN(C)CC4)c(COCCCCO)c3)ncc12)(C(C)C)C(C)C, other bond, 14-membered ring, PPh3/DEAD, 129.0 mM): 28%

Structure (SMILES): CC(C)[Si](C#Cc1cc(=O)n2c3nc(ncc13)Nc1ccc(N3CCN(C)CC3)c(c1)NCCCC2)(C(C)C)C(C)C
ring closure, isolated yield ([1]; from CC(C)[Si](C#Cc1cc(=O)[nH]c2nc(Nc3ccc(N4CCN(C)CC4)c(NCCCCO)c3)ncc12)(C(C)C)C(C)C, other bond, 13-membered ring, PPh3/DIAD, 24.0 mM): 38%

Structure (SMILES): CC(C)[Si](C#Cc1cc(=O)n2c3nc(ncc13)Nc1ccc(N3CCN(C)CC3)c(c1)OCC=CC2)(C(C)C)C(C)C
ring closure, isolated yield ([1]; from CC(C)[Si](C#Cc1cc(=O)[nH]c2nc(Nc3ccc(N4CCN(C)CC4)c(OC/C=C\CO)c3)ncc12)(C(C)C)C(C)C, other bond, 13-membered ring, PPh3/DIAD, 24.0 mM): 55%

Structure (SMILES): CC(C)[Si](C#Cc1cc(=O)n2c3nc(ncc13)Nc1ccc(N3CCN(C)CC3)c(c1)OCCCC2)(C(C)C)C(C)C
ring closure, isolated yield ([1]; from CC(C)[Si](C#Cc1cc(=O)[nH]c2nc(Nc3ccc(N4CCN(C)CC4)c(OCCCCO)c3)ncc12)(C(C)C)C(C)C, other bond, 13-membered ring, PPh3/DIAD, 25.0 mM): 42%

Structure (SMILES): CC(C)[Si](C#Cc1cc(=O)n2c3nc(ncc13)Nc1ccc(N3CCN(C)CC3)c(c1)OCCCCC2)(C(C)C)C(C)C
ring closure, isolated yield ([1]; from CC(C)[Si](C#Cc1cc(=O)[nH]c2nc(Nc3ccc(N4CCN(C)CC4)c(OCCCCCO)c3)ncc12)(C(C)C)C(C)C, other bond, 14-membered ring, PPh3/DIAD, 24.3 mM): 22%

Structure (SMILES): CC(C)[Si](C#Cc1cc(=O)n2c3nc(ncc13)Nc1ccc(N3CCN(C)CC3)c(c1)OCCC[C@H]2C)(C(C)C)C(C)C
ring closure, isolated yield ([1]; from CC(C)[Si](C#Cc1cc(=O)[nH]c2nc(Nc3ccc(N4CCN(C)CC4)c(OCCC[C@H](C)O)c3)ncc12)(C(C)C)C(C)C, other bond, 13-membered ring, PPh3/DIAD, 24.2 mM): 18%

Structure (SMILES): CC(C)[Si](C#Cc1cc(=O)n2c3nc(ncc13)Nc1ccc(N3CCN(C)CC3)c(c1)S(=O)(=O)NCCC2)(C(C)C)C(C)C
ring closure, isolated yield ([1]; from CC(C)[Si](C#Cc1cc(=O)[nH]c2nc(Nc3ccc(N4CCN(C)CC4)c(S(=O)(=O)NCCCO)c3)ncc12)(C(C)C)C(C)C, other bond, 13-membered ring, PPh3/DIAD, 24.3 mM): 15%

Structure (SMILES): CC(C)[Si](C#Cc1cc(=O)n2c3nc(ncc13)Nc1cccc(c1)COCC=CC2)(C(C)C)C(C)C
ring closure, isolated yield ([1]; from CC(C)[Si](C#Cc1cc(=O)[nH]c2nc(Nc3cccc(COC/C=C\CO)c3)ncc12)(C(C)C)C(C)C, other bond, 14-membered ring, PPh3/DIAD, 24.0 mM): 56%

Structure (SMILES): CC(C)[Si](C#Cc1cc(=O)n2c3nc(ncc13)Nc1cccc(c1)OCC=CC2)(C(C)C)C(C)C
ring closure, isolated yield ([1]; from CC(C)[Si](C#Cc1cc(=O)n(C/C=C\CO)c2nc(Nc3cccc(O)c3)ncc12)(C(C)C)C(C)C, ether bond, 13-membered ring, PPh3/DIAD, 25.0 mM): 33%
ring closure, isolated yield ([1]; from CC(C)[Si](C#Cc1cc(=O)n(C/C=C\CO)c2nc(Nc3cccc(O)c3)ncc12)(C(C)C)C(C)C, ether bond, 13-membered ring, PPh3/DIAD, 278.0 mM): 52%

Structure (SMILES): CC(C)[Si](C#Cc1cc(=O)n2c3nc(ncc13)Nc1cccc(c1)OCCC2)(C(C)C)C(C)C
ring closure, isolated yield ([1]; from CC(C)[Si](C#Cc1cc(=O)n(CCCO)c2nc(Nc3cccc(O)c3)ncc12)(C(C)C)C(C)C, ether bond, 12-membered ring, PPh3/DIAD, 52.0 mM): 31%

Structure (SMILES): CC(C)[Si](C#Cc1cc(=O)n2c3nc(ncc13)Nc1cccc(c1)OC[C@H]1CC[C@H](C1)C2)(C(C)C)C(C)C
ring closure, isolated yield ([1]; from CC(C)[Si](C#Cc1cc(=O)[nH]c2nc(Nc3cccc(OC[C@H]4CC[C@@H](CO)C4)c3)ncc12)(C(C)C)C(C)C, other bond, 14-membered ring, PPh3/DIAD, 183.0 mM): 26%

IC50 [2]: < 500 nM
IC50 [3]: < 1000 nM
IC50 [4]: < 500 nM
IC50 [5]: 500 to 1000 nM
Structure (SMILES): C#Cc1cc(=O)n2c3nc(ncc13)Nc1ccc(N3CCN(C(C)C)CC3)c(c1)NC(=O)CCC2 [Example 235, 1^5-Ethynyl-3^4-(4-isopropylpiperazin-1-yl)-1^7,1^8-dihydro-2,4-diaza-1(2,8)-pyrido[2,3-d]pyrimidina-3(1,3)-benzenacyclooctaphane-1^7,5-dione]

IC50 [2]: < 500 nM
IC50 [3]: < 1000 nM
IC50 [4]: < 500 nM
IC50 [5]: 1000 to 3000 nM
Structure (SMILES): C#Cc1cc(=O)n2c3nc(ncc13)Nc1ccc(N3CCN(CCOC)CC3)c(c1)NC(=O)CCC2 [Example 236, 1^5-Ethynyl-3^4-(4-(2-methoxyethyl)piperazin-1-yl)-1^7,1^8-dihydro-2,4-diaza-1(2,8)-pyrido[2,3-d]pyrimidina-3(1,3)-benzenacyclooctaphane-1^7,5-dione]

IC50 [2]: 500 to 1000 nM
IC50 [3]: < 1000 nM
IC50 [4]: < 500 nM
IC50 [5]: > 3000 nM
Structure (SMILES): C#Cc1cc(=O)n2c3nc(ncc13)Nc1ccc(N3CCN(C)CC3)c(c1)CNC(=O)CCC2 [Example 237, 1^5-Ethynyl-3^4-(4-methylpiperazin-1-yl)-1^7,1^8-dihydro-2,5-diaza-1(2,8)-pyrido[2,3-d]pyrimidina-3(1,3)-benzenacyclononaphane-1^7,6-dione]

IC50 [2]: < 500 nM
IC50 [3]: < 1000 nM
IC50 [4]: < 500 nM
IC50 [5]: > 3000 nM
Structure (SMILES): C#Cc1cc(=O)n2c3nc(ncc13)Nc1ccc(N3CCCN(C)CC3)c(c1)NC(=O)CCC2 [Example 238, 1^5-Ethynyl-3^4-(4-methyl-1,4-diazepan-1-yl)-1^7,1^8-dihydro-2,4-diaza-1(2,8)-pyrido[2,3-d]pyrimidina-3(1,3)-benzenacyclooctaphane-1^7,5-dione]

IC50 [2]: < 500 nM
IC50 [3]: < 1000 nM
IC50 [4]: < 500 nM
IC50 [5]: > 3000 nM
Structure (SMILES): C#Cc1cc(=O)n2c3nc(ncc13)Nc1ccc(N3CCN(C)CC3)c(c1)OCCC[C@H]2C [Example 239, (R)-1^5-ethynyl-8-methyl-3^4-(4-methylpiperazin-1-yl)-1^7,1^8-dihydro-4-oxa-2-aza-1(2,8)-pyrido[2,3-d]pyrimidina-3(1,3)-benzenacyclooctaphan-1^7-one]

IC50 [2]: < 500 nM
IC50 [3]: < 1000 nM
IC50 [4]: < 500 nM
IC50 [5]: 1000 to 3000 nM
Structure (SMILES): C#Cc1cc(=O)n2c3nc(ncc13)Nc1ccc(N3CCN(C)CC3)c(c1)CCOCC2 [Example 240, 1^5-Ethynyl-3^4-(4-methylpiperazin-1-yl)-1^7,1^8-dihydro-6-oxa-2-aza-1(2,8)-pyrido[2,3-d]pyrimidina-3(1,3)-benzenacyclooctaphan-1^7-one]

IC50 [2]: < 500 nM
IC50 [3]: < 1000 nM
IC50 [4]: < 500 nM
IC50 [5]: 500 to 1000 nM
Structure (SMILES): C#Cc1cc(=O)n2c3nc(ncc13)Nc1ccc(N3CCN(CCOC)CC3)c(c1)OCCCC2 [Example 241, 1^5-Ethynyl-3^4-(4-(2-methoxyethyl)piperazin-1-yl)-1^7,1^8-dihydro-4-oxa-2-aza-1(2,8)-pyrido[2,3-d]pyrimidina-3(1,3)-benzenacyclooctaphan-1^7-one]

Reference: patent US20260137703A1, “2-AMINO-PYRIDO[2,3-D]PYRIMIDIN-7(8H)-ONE AND 7-AMINO-1-PYRIMIDO[4,5-D]PYRIMIDIN-2(1 H)-ONE DERIVATIVES AS EGFR INHIBITORS FOR THE TREATMENT OF CANCER” (Cancer Research Technology Limited, priority 2022, published 2026)
